Source: patent US4283394A, “Cytotoxic nucleoside-corticosteroid phosphodiesters” (priority 1979, dated 1981)

Experiment: Incubation with fresh baboon plasma
Format: in vitro ADME
Conditions: 37° C.; for metabolised at 24 h: 0.5 ml fresh baboon plasma, read-out: percent hydrolyzed in plasma; for remaining at 24 h: read-out: remaining conjugate among products
Procedure: Enzymatic cleavage of the phosphodiester bond of the conjugates was studied by incubating the conjugates (5 μmol) with various enzymes (1.5-3 mg) in appropriate buffer and with plasma (final volume 0.5 ml). An aliquot (200 μl) of the 24 h incubation mixtures was streaked on Whatman 3 MM paper (23×57 cm) with the authentic markers and the paper was developed in Solvent A. The bands were characterized and analyzed semi-quantitatively by UV estimation of the chromatographs. […] The conjugates also remained 60-85 percent intact during the incubation with baboon plasma at 37° C. for 24 h. From the results of these tests, conjugates of this type appear capable of serving as sustained release froms of the parent steroid and nucleoside components thereof.
The conjugate (5 μmol) was incubated with 0.5 ml of fresh baboon plasma at 37° C. for 24 h. 39 percent of the pred-p-ara-C (I) was hydrolyzed, the products being pred-p-ara-C (44 percent), ara-UMP (7 percent), ara-U (21 percent) and prednisolone (28 percent). Only 15 percent of the prednisone-p-ara-C (II) was hydrolyzed, the products being prednisone-p-ara-C (74 percent), ara-UMP (13 percent) and prednisone (13 percent).

SMILES	metabolised at 24 h	product ara-UMP (baboon plasma, 24 h)	product steroid (prednisolone or prednisone) (baboon plasma, 24 h)	remaining at 24 h (baboon plasma)	product ara-U (baboon plasma, 24 h)
C[C@]12C=CC(=O)C=C1CC[C@@H]1[C@@H]2C(=O)C[C@@]2(C)[C@H]1CC[C@]2(O)C(=O)CO[P+]([O-])(O)OC[C@H]1O[C@@H](n2ccc(N)nc2=O)[C@@H](O)[C@@H]1O (stereo partly drawn) [Prednisone-p-ara-C (II), 5'-(Prednisone-21-phosphoryl)-1-β-D-arabinofuranosylcytosine]	15%	13%	13%	74%	
C[C@]12C=CC(=O)C=C1CC[C@@H]1[C@@H]2[C@@H](O)C[C@@]2(C)[C@H]1CC[C@]2(O)C(=O)CO[P+]([O-])(O)OC[C@H]1O[C@@H](n2ccc(N)nc2=O)[C@@H](O)[C@@H]1O (stereo partly drawn) [Pred-p-ara-C (I), 5'-(Prednisolone-21-phosphoryl)-1-β-D-arabinofuranosylcytosine]	39%	7%	28%	44%	21%
